Source: PMC12649549, “Sequence Permutation Generated Lysine and Tryptophan-Rich Antimicrobial Peptides with Enhanced Therapeutic Index” (Antibiotics, 2025)
Where two headings read alike, the source gives them in different places.

Columns and labels:
[1] = system: Gram-positive bacteria; test: Geometric mean MIC and therapeutic index, Gram-positive bacteria; type: cell-based; details: Gram-positive bacteria; for GM G+ (geometric mean of the MIC values): MH broth, MIC >50 µg/mL counted as 100 µg/mL; for Therapeutic Index (TI) G+: HC10/GM
Procedure: (§1) In this study, we aimed to investigate the potential of W5K series peptides for therapeutic use. To evaluate their efficacy for antibacterial therapy, we used the Therapeutic Index (TI) as a measure of their cell selectivity. The TI was calculated as the ratio of the concentration causing 10% hemolysis of human red blood cells (HC10) to the geometric mean minimum inhibitory concentration (GM) of the peptides against both Gram-negative and Gram-positive bacteria. This parameter was used to quantitatively assess the balance between antibacterial potency and cytotoxicity among the W5K derivatives.
(§2) The antibacterial activities of the peptides in Müller-Hinton (MH) broth and modified LYM broth were determined using the standard broth microdilution method as per Clinical and Laboratory Standards Institute (CLSI) guidelines. The LYM broth was prepared with specific components and adjusted to different conditions, including varying concentrations of NaCl and MgCl2, and different pH levels. To prepare the LYM broth, 5.4 mM KCl, 5.6 mM Na2HPO4, 0.5 mM MgSO4, and 1.0 mM sodium citrate were added. Additionally, 0.4 mg of ZnCl2, 2.0 mg of FeCl3·6H2O, 0.1 mg of CuSO4·5H2O, 0.1 mg of MnSO4·H2O, 0.1 mg of Na2B4O7∙10H2O, 700 mg of amino acid mixtures without tryptophan (Takara Bio Inc., San Jose, CA, USA), and 20 mg of L-tryptophan were added per liter of medium. The pH was adjusted to 7.4, and a vitamin mixture (100X, Sigma) and glucose concentration of 2% were added. For different conditions of LYM broth, NaCl concentrations of 300, 200, 150, and 50 mM, MgCl2 concentrations of 2.5, 1.5, and 0.5 mM, and pH levels of 6.5, 5.5, and 4.5 were adjusted. Bacterial strains were incubated in MH broth overnight, regrown, and diluted to a final concentration of 5 × 10^5 CFU/mL. Peptides were added to each well at final concentrations of 50, 25, 12.5, 6.25, 3.13, 1.56, and 0.78 µg/mL, and 99 µL of diluted microbes was loaded into each well of a polypropylene 96-well plate. […] The Morpheus HeatMap software (https://software.broadinstitute.org/morpheus/) was used to display MIC values on a color scale. All experiments were independently repeated three times.

[2] = system: A. baumannii 14B0097 (Acinetobacter sp., BCRC number 14B0097)
Outline: (§3)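 Broth microdilution per CLSI in Müller-Hinton broth and modified LYM broth (pH 7.4; variants with 300–50 mM NaCl, 2.5–0.5 mM MgCl2, or pH 6.5–4.5). Inoculum 5 × 10^5 CFU/mL; peptides at final 50 to 0.78 µg/mL, twofold series. MIC reported; three independent repeats.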

[3] = system: S. aureus ATCC 33591
Outline: as §3

[4] = system: A. baumannii 14B0091 (Acinetobacter sp., BCRC number 14B0091)
Outline: as §3

[5] = system: S. aureus ATCC 33593
Outline: as §3

[6] = system: Escherichia coli (ATCC 25922)
Outline: as §3

[7] = system: S. aureus ATCC 25923
Outline: as §3

[8] = system: Both Gram-positive and -negative bacteria; test: Geometric mean MIC, therapeutic index and fold changes of MIC, whole panel of strains; type: cell-based; details: for GM G−/+ (geometric mean of the MIC values): Both Gram-positive and -negative bacteria, MH broth, MIC >50 µg/mL counted as 100 µg/mL; for Therapeutic Index (TI) G−/+: HC10/GM, both Gram-positive and -negative bacteria
Procedure: as §1, §2

[9] = LYM broth, 0 mM NaCl, 16 h, 37 °C
[10] = LYM broth, 50 mM NaCl, 16 h, 37 °C
[11] = LYM broth, 100 mM NaCl, 16 h, 37 °C
[12] = LYM broth, 200 mM (NaCl), 16 h, 37 °C
[13] = LYM broth, 300 mM (NaCl), 16 h, 37 °C
[14] = MH broth, 5 × 10^5 CFU/mL, 16 h, 37 °C, repeated three times

Ac-KWLKWLAKKKKWR-NH2 [Peptide W5K04]
GM G+ (geometric mean of the MIC values) [1]: 66.0 µg/mL | Therapeutic Index (TI) G+ [1]: 1.6 | MIC [2, 9]: 1.56 µg/mL | MIC ([2]; LYM broth, 0.5 mM MgCl2): 1.56 µg/mL | MIC ([2]; LYM broth, 1.5 mM MgCl2): 3.13 µg/mL | MIC ([2]; LYM broth, 2.5 mM MgCl2): 3.13 µg/mL | MIC [2, 10]: 3.13 µg/mL | MIC [2, 11]: 3.13 µg/mL | MIC [2, 12]: 12.5 µg/mL | MIC [2, 13]: 50 µg/mL | MIC ([2]; LYM broth, pH 4.5): 3.13 µg/mL | MIC ([2]; LYM broth, pH 5.5): 1.56 µg/mL | MIC ([2]; LYM broth, pH 6.5): 1.56 µg/mL | MIC [2, 14]: 12.5 µg/mL | MIC [3, 9]: 25 µg/mL | MIC ([3]; LYM broth, 0.5 mM MgCl2): 25 µg/mL | MIC ([3]; LYM broth, 1.5 mM MgCl2): 25 µg/mL | MIC ([3]; LYM broth, 2.5 mM MgCl2): 50 µg/mL | MIC [3, 10]: 50 µg/mL | MIC [3, 11]: 50 µg/mL | MIC [3, 12]: >50 µg/mL | MIC [3, 13]: >50 µg/mL | MIC ([3]; LYM broth, pH 4.5): 25 µg/mL | MIC ([3]; LYM broth, pH 5.5): 12.5 µg/mL | MIC ([3]; LYM broth, pH 6.5): 12.5 µg/mL | MIC [3, 14]: >50 µg/mL | MIC [4, 9]: 1.56 µg/mL | MIC ([4]; LYM broth, 0.5 mM MgCl2): 1.56 µg/mL | MIC ([4]; LYM broth, 1.5 mM MgCl2): 3.13 µg/mL | MIC ([4]; LYM broth, 2.5 mM MgCl2): 3.13 µg/mL | MIC [4, 10]: 3.13 µg/mL | MIC [4, 11]: 3.13 µg/mL | MIC [4, 12]: 12.5 µg/mL | MIC [4, 13]: 50 µg/mL | MIC ([4]; LYM broth, pH 4.5): 3.13 µg/mL | MIC ([4]; LYM broth, pH 5.5): 3.13 µg/mL | MIC ([4]; LYM broth, pH 6.5): 1.56 µg/mL | MIC [4, 14]: 12.5 µg/mL | MIC [5, 9]: 25 µg/mL | MIC ([5]; LYM broth, 0.5 mM MgCl2): 25 µg/mL | MIC ([5]; LYM broth, 1.5 mM MgCl2): 25 µg/mL | MIC ([5]; LYM broth, 2.5 mM MgCl2): 25 µg/mL | MIC [5, 10]: 25 µg/mL | MIC [5, 11]: 50 µg/mL | MIC [5, 12]: >50 µg/mL | MIC [5, 13]: >50 µg/mL | MIC ([5]; LYM broth, pH 4.5): 25 µg/mL | MIC ([5]; LYM broth, pH 5.5): 25 µg/mL | MIC ([5]; LYM broth, pH 6.5): 25 µg/mL | MIC [5, 14]: >50 µg/mL | MIC [6, 9]: 6.25 µg/mL | MIC ([6]; LYM broth, 0.5 mM MgCl2): 12.5 µg/mL | MIC ([6]; LYM broth, 1.5 mM MgCl2): 12.5 µg/mL | MIC ([6]; LYM broth, 2.5 mM MgCl2): 12.5 µg/mL | MIC [6, 10]: 25 µg/mL | MIC [6, 11]: 50 µg/mL | MIC [6, 12]: >50 µg/mL | MIC [6, 13]: >50 µg/mL | MIC ([6]; LYM broth, pH 4.5): 6.25 µg/mL | MIC ([6]; LYM broth, pH 5.5): 3.13 µg/mL | MIC ([6]; LYM broth, pH 6.5): 3.13 µg/mL | MIC [6, 14]: 25 µg/mL | MIC [7, 9]: 6.25 µg/mL | MIC ([7]; LYM broth, 0.5 mM MgCl2): 6.25 µg/mL | MIC ([7]; LYM broth, 1.5 mM MgCl2): 6.25 µg/mL | MIC ([7]; LYM broth, 2.5 mM MgCl2): 6.25 µg/mL | MIC [7, 10]: 12.5 µg/mL | MIC [7, 11]: 25 µg/mL | MIC [7, 12]: >50 µg/mL | MIC [7, 13]: >50 µg/mL | MIC ([7]; LYM broth, pH 4.5): 12.5 µg/mL | MIC ([7]; LYM broth, pH 5.5): 6.25 µg/mL | MIC ([7]; LYM broth, pH 6.5): 3.13 µg/mL | MIC [7, 14]: 50 µg/mL | GM G−/+ (geometric mean of the MIC values) [8]: 35.4 µg/mL | Therapeutic Index (TI) G−/+ [8]: 3.1

Ac-KWLAKKKKWRKWL-NH2 [Peptide W5K07]
GM G+ (geometric mean of the MIC values) [1]: 87.1 µg/mL | Therapeutic Index (TI) G+ [1]: 1.2 | MIC [2, 9]: 3.13 µg/mL | MIC ([2]; LYM broth, 0.5 mM MgCl2): 3.13 µg/mL | MIC ([2]; LYM broth, 1.5 mM MgCl2): 3.13 µg/mL | MIC ([2]; LYM broth, 2.5 mM MgCl2): 3.13 µg/mL | MIC [2, 10]: 6.25 µg/mL | MIC [2, 11]: 12.5 µg/mL | MIC [2, 12]: 50 µg/mL | MIC [2, 13]: >50 µg/mL | MIC ([2]; LYM broth, pH 4.5): 3.13 µg/mL | MIC ([2]; LYM broth, pH 5.5): 3.13 µg/mL | MIC ([2]; LYM broth, pH 6.5): 3.13 µg/mL | MIC [2, 14]: 12.5 µg/mL | MIC [3, 9]: 25 µg/mL | MIC ([3]; LYM broth, 0.5 mM MgCl2): 25 µg/mL | MIC ([3]; LYM broth, 1.5 mM MgCl2): 25 µg/mL | MIC ([3]; LYM broth, 2.5 mM MgCl2): 25 µg/mL | MIC [3, 10]: 25 µg/mL | MIC [3, 11]: 50 µg/mL | MIC [3, 12]: 50 µg/mL | MIC [3, 13]: >50 µg/mL | MIC ([3]; LYM broth, pH 4.5): 25 µg/mL | MIC ([3]; LYM broth, pH 5.5): 25 µg/mL | MIC ([3]; LYM broth, pH 6.5): 12.5 µg/mL | MIC [3, 14]: >50 µg/mL | MIC [4, 9]: 3.13 µg/mL | MIC ([4]; LYM broth, 0.5 mM MgCl2): 3.13 µg/mL | MIC ([4]; LYM broth, 1.5 mM MgCl2): 3.13 µg/mL | MIC ([4]; LYM broth, 2.5 mM MgCl2): 3.13 µg/mL | MIC [4, 10]: 6.25 µg/mL | MIC [4, 11]: 6.25 µg/mL | MIC [4, 12]: 50 µg/mL | MIC [4, 13]: >50 µg/mL | MIC ([4]; LYM broth, pH 4.5): 6.25 µg/mL | MIC ([4]; LYM broth, pH 5.5): 3.13 µg/mL | MIC ([4]; LYM broth, pH 6.5): 3.13 µg/mL | MIC [4, 14]: 12.5 µg/mL | MIC [5, 9]: 25 µg/mL | MIC ([5]; LYM broth, 0.5 mM MgCl2): 25 µg/mL | MIC ([5]; LYM broth, 1.5 mM MgCl2): 25 µg/mL | MIC ([5]; LYM broth, 2.5 mM MgCl2): 25 µg/mL | MIC [5, 10]: 25 µg/mL | MIC [5, 11]: 50 µg/mL | MIC [5, 12]: 50 µg/mL | MIC [5, 13]: >50 µg/mL | MIC ([5]; LYM broth, pH 4.5): 25 µg/mL | MIC ([5]; LYM broth, pH 5.5): 12.5 µg/mL | MIC ([5]; LYM broth, pH 6.5): 12.5 µg/mL | MIC [5, 14]: >50 µg/mL | MIC [6, 9]: 12.5 µg/mL | MIC ([6]; LYM broth, 0.5 mM MgCl2): 12.5 µg/mL | MIC ([6]; LYM broth, 1.5 mM MgCl2): 25 µg/mL | MIC ([6]; LYM broth, 2.5 mM MgCl2): 25 µg/mL | MIC [6, 10]: 25 µg/mL | MIC [6, 11]: 50 µg/mL | MIC [6, 12]: >50 µg/mL | MIC [6, 13]: >50 µg/mL | MIC ([6]; LYM broth, pH 4.5): 12.5 µg/mL | MIC ([6]; LYM broth, pH 5.5): 6.25 µg/mL | MIC ([6]; LYM broth, pH 6.5): 6.25 µg/mL | MIC [6, 14]: 50 µg/mL | MIC [7, 9]: 6.25 µg/mL | MIC ([7]; LYM broth, 0.5 mM MgCl2): 6.25 µg/mL | MIC ([7]; LYM broth, 1.5 mM MgCl2): 12.5 µg/mL | MIC ([7]; LYM broth, 2.5 mM MgCl2): 12.5 µg/mL | MIC [7, 10]: 12.5 µg/mL | MIC [7, 11]: 25 µg/mL | MIC [7, 12]: 50 µg/mL | MIC [7, 13]: >50 µg/mL | MIC ([7]; LYM broth, pH 4.5): 12.5 µg/mL | MIC ([7]; LYM broth, pH 5.5): 6.25 µg/mL | MIC ([7]; LYM broth, pH 6.5): 3.13 µg/mL | MIC [7, 14]: 50 µg/mL | GM G−/+ (geometric mean of the MIC values) [8]: 43.5 µg/mL | Therapeutic Index (TI) G−/+ [8]: 2.5
